Assays:
[1] = test system: adults with ADHD; assay: Study A: ABT-894 Adult ADHD Dose-Ranging crossover clinical study, efficacy rating scales; format: in vivo, human; settings: Atomoxetine 40 mg BID
Experimental: (§1) A clinical study (Study A) was conducted to assess the safety and efficacy of ABT-894 compared to placebo in adults with ADHD and to evaluate the dose-response relationship.
A total of 243 subjects aged 18 to 60 years old meeting DSM-IV-TR criteria for ADHD were randomized across the 5 dose groups. Male or female patients were included. […] The disposition of the study subjects is further discussed with the study results below.
(§2) Subjects in each dose group received, in random order, both ABT-894 and placebo according to a 2×2 crossover design. Each treatment period was 4 weeks separated by a 2-week washout period.
Each site was assigned to one of two cohorts (Cohort A or Cohort B) in approximately a 3:2 ratio. Subjects in Cohort A were randomized in equal proportions to one of 6 treatment sequences in 3 dose groups, and subjects in Cohort B were randomized in equal proportions to one of 4 treatment sequences in 2 dose groups, as shown in Table 1. Within each dose group subjects received either ABT-894 or atomoxetine in Period 1 and placebo in Period 2, or placebo in Period 1 and ABT-894 or atomoxetine in Period 2.
The study medication was dispensed in the form of a capsule. Each capsule contained ABT-894, atomoxetine, or placebo. The capsules were made to look identical.
The primary efficacy endpoint was the Conners' Adult ADHD Rating Scale—Investigator Rated (CAARS:Inv) Total Score (18 items) at the final evaluation of each 4-week treatment period. The CAARS:Inv was assessed at baseline and Days 7. 14. 21, and 28 of each period. Each CAARS:Inv item was rated on a 4-point scale of frequency of occurrence (0=not at all, never; 3=very much. very frequently) during the previous 7 days.
(§3) Secondary efficacy endpoints included the CAARS:Inv Inattentive and Hyperactive/Impulsive Subscale Scores, Clinical Global Impression-ADHD-Severity Scale (CGI-ADHD-S). Adult ADHD Investigator Symptom Report Scale (AISRS), including total and subscales, and the Self-rated Connors Adult ADHD Rating Scale (CAARS-Self). Health outcomes including the Adult ADHD Quality of Life Scale (AAQoL) and Work Productivity and Activity Impairment Questionnaire (WPAI) were used to evaluate the validity of these scales in this study population for use in subsequent clinical trials.
The primary analysis was performed on each dose group separately according to the Statistical Analysis Plan (SAP). The primary statistical model that was used for analyzing the primary efficacy variable, the CAARS:INV total score, and all other secondary efficacy variables was determined by a SAP specified testing procedure. The comparability between two sequences for a given dose group with respect to the difference between period-specific baselines was tested using a one-way ANCOVA with the term of treatment and the Period I baseline as the covariate at the significance level of 0.10. The equal residual effect from Period I to Period II between two different sequences for a given dose group was tested using a standard model for cross-over data analysis, Grizzle model, on the term of “sequence” at the significance level of 0.10.
After the study blind was broken, across 5 dose groups. all the tests accepted the null hypothesis that there was no statistically significant treatment effect for the differences between the period-specific baselines. The tests also accepted the null hypothesis that there was no period residual effect in any of the dose groups. Accordingly, the Grizzle model was used as the primary analysis model to analyze treatment group difference for CAARS:INV total score at Day 28 for each dose group. The Grizzle Model was carried out by SAS PROC Mixed with the terms of study center. sequence, subjects within sequence, period, treatment, as well as period-specific baselines as covariates.
The primary efficacy dataset included all subjects who completed both periods of the study (completers dataset). […]

[2] = test system: adults with ADHD; assay: Study A: weight and vital signs; format: in vivo, human; settings: Atomoxetine 40 mg BID, final evaluation (LOCF)
Experimental: The treatment group differences in vital signs were analyzed using a Grizzle Model similar to the model used for the efficacy analyses with the exclusion of period-specific baselines.

[3] = test system: adults with ADHD; assay: Study A: treatment-emergent adverse events (safety dataset); settings: Atomoxetine 40 mg BID, N = 50
Experimental: During each visit, blood pressure, heart rate, weight, medication accountability and tolerability, and adverse effects were assessed.
The safety dataset consisted of all subjects who took at least one dose of study drug. The reasons for discontinuation and the treatment-emergent adverse events were summarized by the treatment under which the discontinuation or event was reported.
Treatment-emergent adverse events were those that began or worsened following the first dose of study drug in Period 1. Adverse event monitoring was conducted at each study visit and until 30 days following discontinuation of study drug. Other routine safety assessments included vital signs, electrocardiograms, physical examinations, brief neurological examinations and laboratory tests.

[4] = test system: adults with ADHD; assay: Study A: patient-reported health outcomes (AAQoL, WPAI); format: in vivo, human; parameters: WPAI Absenteeism (employed), Mean Diff. / WPAI Impaired Work Effectiveness (employed), Mean Diff. / AAQoL Total, Mean Diff. / WPAI Overall Activity Impairment (all), Mean Diff. / WPAI Overall Work Impairment (employed), Mean Diff.: scale not given here; settings: ATX 40 mg BID
Experimental: as §1, §2, §3

CNCC[C@@H](Oc1ccccc1C)c1ccccc1 [Atomoxetine, (3R)-N-methyl-3-(2-methylphenoxy)-3-phenyl-propan-1-amine, reference compound]
AISRS Hyperactivity Score, mean difference from placebo ([1]; day 28, completers): −3.29 (−5.4, −1.2)
AISRS Inattention Score, mean difference from placebo ([1]; day 28, completers): −3.81 (−6.1, −1.6)
AISRS Total Score, mean difference from placebo ([1]; day 28, completers): −7.18 (−11.5, −2.9)
CAARS:Self ADHD Index, mean difference from placebo ([1]; day 28, completers): −3.08 (−4.8, −1.3)
CAARS:Self Hyperactivity Score, mean difference from placebo ([1]; day 28, completers): −1.43 (−2.4, −0.5)
CAARS:Self Impulsivity Score, mean difference from placebo ([1]; day 28, completers): −1.17 (−1.9, −0.5)
CAARS:Self Inattention/Memory Score, mean difference from placebo ([1]; day 28, completers): −1.56 (−2.5, −0.6)
CAARS:Self Problem with Self-concept Score, mean difference from placebo ([1]; day 28, completers): −0.70 (−1.5, 0.1)
CAARS:Self Total Score, mean difference from placebo ([1]; day 28, completers): −7.12 (−10.9, −3.3)
CGI-ADHD-S, mean difference from placebo ([1]; day 28, completers): −0.45 (−0.8, −0.1)
CAARS:Inv ADHD Index, mean difference from placebo ([1]; day 28, completers N = 40): −3.00 (−4.9, −1.1)
CAARS:Inv Hyperactive/Impulsive subscale score, mean difference from placebo ([1]; day 28, completers N = 40): −1.43 (−2.4, −0.4)
CAARS:Inv Inattentive subscale score, mean difference from placebo ([1]; day 28, completers N = 40): −3.89 (−6.3. −1.5)
CAARS:Inv Total Score, mean difference from placebo ([1]; day 28, completers N = 40): −7.98 (−12.5. −3.5)
Diastolic BP, mean difference from placebo [2]: 0.72 mm Hg
Pulse, mean difference from placebo [2]: 4.74 bpm
Systolic BP, mean difference from placebo [2]: 1.16 mm Hg
Weight, mean difference from placebo [2]: -0.73 kg
Any Adverse Event, % of subjects [3]: (82.0) %
Any Adverse Event, number of subjects [3]: 41 subjects
Decreased appetite, % of subjects [3]: (12.0) %
Decreased appetite, number of subjects [3]: 6 subjects
Diarrhea, % of subjects [3]: (2.0) %
Diarrhea, number of subjects [3]: 1 subjects
Dizziness, % of subjects [3]: (8.0) %
Dizziness, number of subjects [3]: 4 subjects
Dry mouth, % of subjects [3]: (6.0) %
Dry mouth, number of subjects [3]: 3 subjects
Fatigue, % of subjects [3]: (12.0) %
Fatigue, number of subjects [3]: 6 subjects
Feeling hot and cold, % of subjects [3]: (6.0) %
Feeling hot and cold, number of subjects [3]: 3 subjects
Feeling jittery, % of subjects [3]: (6.0) %
Feeling jittery, number of subjects [3]: 3 subjects
Headache, % of subjects [3]: (14.0) %
Headache, number of subjects [3]: 7 subjects
Influenza-like illness, % of subjects [3]: (6.0) %
Influenza-like illness, number of subjects [3]: 3 subjects
Lethargy, % of subjects [3]: (6.0) %
Lethargy, number of subjects [3]: 3 subjects
Muscle Strain, % of subjects [3]: (0) %
Muscle Strain, number of subjects [3]: 0 subjects
Nasal congestion, % of subjects [3]: (4.0) %
Nasal congestion, number of subjects [3]: 2 subjects
Nausea, % of subjects [3]: (20.0) %
Nausea, number of subjects [3]: 10 subjects
Parathesia, % of subjects [3]: (10.0) %
Parathesia, number of subjects [3]: 5 subjects
Sleep disturbances, % of subjects [3]: (16.0) %
Sleep disturbances, number of subjects [3]: 8 subjects
Somnolence, % of subjects [3]: (8.0) %
Somnolence, number of subjects [3]: 4 subjects
Upper RTI, % of subjects [3]: (4.0) %
Upper RTI, number of subjects [3]: 2 subjects
Vomiting, % of subjects [3]: (2.0) %
Vomiting, number of subjects [3]: 1 subjects
WPAI Absenteeism (employed), Mean Diff. ([4]; N 18): 0.019
WPAI Impaired Work Effectiveness (employed), Mean Diff. ([4]; N 18): −0.143
WPAI Overall Work Impairment (employed), Mean Diff. ([4]; N 18): −0.12
WPAI Overall Activity Impairment (all), Mean Diff. ([4]; N 36): −0.13
AAQoL Total, Mean Diff. ([4]; N 40): 7.23

— patent US8222278B2, “Treatment of attention-deficit/hyperactivity disorder” (Abbott Laboratories, priority 2008, dated 2012)
